Series [1] relates to A549 cells. In words: Effect on A549 cell activity by CCK-8 method. The format is cell-based. The following applies: 0 to 10^5 nM, 12 hours. The method, then: (§1) (1) A549 cells in the logarithmic phase were collected, the concentration of the cell suspension was adjusted, and 100 μL was added per well. The cells to be tested were plated to a density of 10^3 to 10^4 cells/well and incubated at 37° C. under 5% CO2 until the bottom of the wells was covered by a single layer of cells.
(§2) (2) Different concentrations of the compound represented by Formula I were added: 0, 10, 10^2, 10^3, 10^4 and 10^5 nM/well, with 3 replicate wells set, and incubated at 37° C. under 5% CO2 for 12 hours.
(1) 10 μL CCK-8 reagent was added to the above cells in each well and reacted for 2 h.
(2) The incubation was terminated, and the culture medium in the wells was carefully aspirated.
(3) The absorbance of each well was measured using a microplate reader with a wavelength of 450 nm.
(4) The absorbance ratio between the experimental group and the control group was calculated as follows: Cell viability=(Absorbance of the experimental group−Blank control)+ (Absorbance of the control group−Blank control)×100%.

Series [2] concerns the target T1, CypA (Homo sapiens, UniProt P62937).
T1 construct: A549 cells in the logarithmic phase were collected; endogenous in cells; host or cells: A549
In words: CypA degradation in A549 cells by Western Blot. Conditions: A549 cell line. The format is cell-based. The method, then:
as §1, §2
(1) The treated cells were scraped off from the culture medium, suspended thoroughly, and then collected by centrifugation at 300 g for 5 minutes. After washing with PBS once, the PBS was discarded.
(2) 100 μL of 2× Loading Buffer was added to each sample, shaken thoroughly to mix well, denatured at 100° C. for 5 minutes, and stored at −20° C. after mixing well or directly used for Western Blot detection. The Formula of 5× Loading Buffer was as follows: 250 mM Tris-HCl (pH 6.8), 10% (W/V) SDS, 0.5% (W/V) bromophenol blue, 50% (V/V) glycerol, 5% (W/V) β-mercaptoethanol (2-ME). […]
2) Sample preparation: protein samples were prepared according to experimental requirements, centrifuged, mixed well, and loaded into the loading wells of SDS-PAGE gel. The loading volume was adjusted appropriately according to the protein quantification results. […]

The target of series [3] is CypA (Mus musculus, UniProt P17742). The format is in vivo, C57BL/6 mice. The following applies: IBV-infected mice, 10 mg/kg/day, 7 days after infection.
A further series has as its system IBV-induced pneumonia. More on the design: species or system C57BL/6 mice. Conditions: mouse, in vivo.
Series [4] concerns IL-1B, TNF-α, IL-6 and IFN-γ. More on the design: species or system C57BL/6 mice. The following applies: mouse, in vivo.
The subject of the next series is rheumatoid arthritis. Nature of the series: Rat arthritis model (Freund complete adjuvant). The format is in vivo, Lewis rats. Conditions: rats, 10 mg/kg tail vein three times/week. The procedure:
The BCG vaccine was inactivated in a water bath at 80° C. for 1 h, ground thoroughly with incomplete Freund adjuvant, and mixed well to prepare 15 mg/mL Freund complete adjuvant (FCA). Lewis rats were divided into 4 groups: blank group (PBS), untreated group (UT), treatment group 1 (compound) and treatment group 2 (MTX (methotrexate)), with 5 rats in each group and a body weight of […]. Except for the PBS group, rats were intradermally injected with 0.1 mL of FCA in the right hind paw. On day 14 after injection, rats in treatment group 1 (compound) were injected with the compound (10 mg/kg of body weight, dissolved in 100 μL of PBS) through the tail vein three times/week; rats in treatment group 2 (MTX (methotrexate)) were intraperitoneally injected with methotrexate (1.2 mg/kg of body weight) three times/week.
The circumference of the metatarsophalangeal joint was measured. The circumference of the ankle joint of the left hind paw (on the secondary lesion side) of all rats was measured once before modeling, before administration and 3 weeks after administration, respectively, and the percentage of joint swelling was calculated.
The joint index was determined by joint swelling score before administration (Day 0) and 3 weeks after administration. Scoring was carried out based on the redness and swelling degree of the ankle and toe joints of the front and rear limbs of rats and the affected joint index, as follows: 0 for normal; 1 for the redness and swelling of one joint; 2 for the redness and swelling of two or more joints; 3 for severe redness and swelling of the paw below the ankle joint; 4 for the redness and swelling of the entire paw including the ankle joint and inability to bear weight. The limbs were scored separately, and the cumulative sum of the scores was the joint index.
(1) On the day 21 of administration, rats were euthanized after blood collection. […]
(2) Joint synovial proliferation and the degree of sub-synovial inflammation were observed under a light microscope, and synovial cell proliferation was scored.

The subject of series [5] is A549 cells. In words: Migration and infiltration of lung cancer cells, Transwell chambers. The format is cell-based. The method, then: (1) A549 cells in the logarithmic phase were collected, the concentration of the cell suspension was adjusted, and 100 μL was added per well. The cells to be tested were plated to a density of 10^3-10^4 cells/well and incubated at 37° C. under 5% CO2 until the bottom of the wells was covered by a single layer of cells.
as §2
The upper chamber of a 24-well cell culture insert ([…] pore size) was coated (no migration) or (invasive) with a matrix (1 mg/mL) and dried at 37° C. for 30 min.
(3) A549/WT and A549/CypA-cells were trypsinized, washed and suspended in serum-free DMEM after treatment with 20 ng/ml TGF-β for 48 h.
(1) DMEM containing 10% fetal bovine serum was added to the lower chamber per approximately 5×10^4 cells inserted in the upper chamber.
(2) After incubation for 6 h (migration) or 24 h (invasion), non-migrating or […] cells residing on the upper part of the insert membrane were removed with a cotton swab.
(3) The cells that migrated to the underside of the membrane were fixed and stained with 2% crystal violet in ethanol.
(4) The stained cells were observed and counted under a Japan Olympus CKX41 microscope.

Structures are written as SMILES.

T1 sequence (P62937 whole entry): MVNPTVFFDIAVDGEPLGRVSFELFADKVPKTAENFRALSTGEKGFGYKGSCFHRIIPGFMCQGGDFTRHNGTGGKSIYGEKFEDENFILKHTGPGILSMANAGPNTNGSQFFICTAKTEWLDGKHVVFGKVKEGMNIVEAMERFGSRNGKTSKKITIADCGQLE
Chain of CypA (Mus musculus, UniProt P17742) (P17742 whole entry): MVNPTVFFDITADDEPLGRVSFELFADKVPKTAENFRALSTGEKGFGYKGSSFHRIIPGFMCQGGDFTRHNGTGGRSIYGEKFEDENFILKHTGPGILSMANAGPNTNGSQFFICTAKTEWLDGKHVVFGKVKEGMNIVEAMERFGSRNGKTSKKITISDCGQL

Regarding `Cc1ncsc1-c1ccc(C(C)NC(=O)[C@@H]2C[C@@H](O)CN2C(=O)[C@H](NC(=O)COCCCCCOc2cccc(O)c2C(=O)NC(=O)NC2CCCCC2)C(C)(C)C)cc1` (stereo partly drawn) [Formula I], the cell viability entry in the series on A549 cells [1] was “above 80%”. The DC50 on CypA [2] (12 hours, Western Blot, read-out: half-degradation concentration on CypA) was less than 100 nM. Moreover, the “degradation effect on the CypA protein” value at CypA [2] (WB results) is listed as “clearly observed”. For the same compound, on CypA [3], the “expression of CypA in mouse lung tissue” value is given as “significantly reduce”. The “lung injury (lung index, pathology, pathological scores)” value in the series with IBV-induced pneumonia was “significantly alleviate lung injury”. Besides, in series [4], the “expression of IFN-γ in the lung tissue” value is “significantly reduce”, the “expression of IL-1B in the lung tissue” value is reported as “significantly reduce”, the “expression of IL-6 in the lung tissue” value is given as “significantly reduce” and the “expression of TNF-α in the lung tissue” value is “significantly reduce”. Further, in series [4], the lung inflammation entry was “alleviating lung inflammation”. Moreover, in the series on rheumatoid arthritis (3 weeks after administration), the “joint index of the ankle joint” value is given as “reduce” and the joint swelling result was “significantly relieve”. Besides, the “inflammation of the ankle joint (ankle pathological scores)” value with rheumatoid arthritis (day 21, HE staining) was “alleviate”. Besides, in the series with A549 cells [5] (Transwell with matrix, 24 h), the “infiltration of lung cancer cells” value is listed as “significantly reduce”. Moreover, the “migration of lung cancer cells” value in the series with A549 cells [5] (Transwell, 6 h) is given as “significantly reduce”.

(Values after US20250361267A1, “CHIMERIC COMPOUND FOR DEGRADING CYCLOPHILIN A, PREPARATION METHOD THEREFOR, AND USE THEREOF” (INSTITUTE OF MICROBIOLOGY, CHINESE ACADEMY OF SCIENCES, priority 2022, published 2025).)
